Data as given in ChEMBL document CHEMBL1148828, “Deoxycholic acid-derived tetraoxane antimalarials and antiproliferatives(1)” (J Med Chem, 2007).

Columns and labels:
Assay type in all cases: functional, organism-based
[1] = tested on: Plasmodium falciparum; test: Antimalarial activity against Plasmodium falciparum W2
[2] = tested on: Plasmodium falciparum; test: Antimalarial activity against Plasmodium falciparum D6
[3] = tested on: Plasmodium falciparum; test: Antimalarial activity against Plasmodium falciparum TM91C235
[4] = Plasmodium falciparum, TM91C235

SMILES	IC50 ([1]; Plasmodium falciparum, W2) [nM]	IC90 ([1]; Plasmodium falciparum, W2) [nM]	IC50 ([2]; Plasmodium falciparum, D6) [nM]	IC90 ([2]; Plasmodium falciparum, D6) [nM]	IC50 [3, 4] [nM]	IC90 [3, 4] [nM]	IC90 [2] [nM]	IC50 [3] [nM]	IC90 [3] [nM]	IC50 [1] [nM]	IC90 [1] [nM]	IC50 [2] [nM]
COC(=O)CC[C@@H](C)[C@H]1CC[C@H]2[C@@H]3CC[C@@H]4CC5(CC[C@]4(C)[C@H]3C[C@H](OC(C)=O)[C@]12C)OOC1(CCCCC1)OO5	112	170	201	258								
CCCN(CCC)C(=O)CC[C@@H](C)[C@H]1CC[C@H]2[C@@H]3CC[C@@H]4CC5(CC[C@]4(C)[C@H]3C[C@H](OC(C)=O)[C@]12C)OOC1(CCCCC1)OO5	150	169	179	197	169	203						
CC(=O)O[C@H]1C[C@H]2[C@@H](CC[C@@H]3CC4(CC[C@@]32C)OOC2(CCCCC2)OO4)[C@@H]2CC[C@H]([C@H](C)CCC(N)=O)[C@@]12C	19.1	35.6	32.7	50.4	40.9	76.7						
CC(=O)O[C@H]1C[C@H]2[C@@H](CC[C@@H]3CC4(CC[C@@]32C)OOC2(CCCCC2)OO4)[C@@H]2CC[C@H]([C@H](C)CCC(=O)N3CCCCC3)[C@@]12C	55.5	78.6	106	131	84.7	125						
CC(=O)O[C@H]1C[C@H]2[C@@H]([C@H](OC(C)=O)C[C@@H]3CC4(CC[C@@]32C)OOC2(CCCCC2)OO4)[C@@H]2CC[C@H]([C@H](C)CCC(=O)Nc3ccccc3)[C@@]12C	11.2	25.9	6.7	11.7	10.3	27.8						
CC(=O)O[C@H]1C[C@H]2[C@@H](CC[C@@H]3CC4(CC[C@@]32C)OOC2(CCCCC2)OO4)[C@@H]2CC[C@H]([C@H](C)CCC(=O)NN)[C@@]12C	347		347		347							
CC(=O)O[C@H]1C[C@H]2[C@@H](CC[C@@H]3CC4(CC[C@@]32C)OOC2(CCCCC2)OO4)[C@@H]2CC[C@H]([C@H](C)CCC(=O)O)[C@@]12C	93.9	178	107	310								
CC(=O)O[C@H]1C[C@H]2[C@@H](CC[C@@H]3CC4(CC[C@@]32C)OOC2(CCCCC2)OO4)[C@@H]2CC[C@H]([C@H](C)CCC(=O)Nc3ccccc3)[C@@]12C	81.6	195	133	195								
COC(=O)CC[C@@H](C)[C@H]1CC[C@H]2[C@@H]3CC[C@@H]4CC5(CC[C@]4(C)[C@H]3C[C@H](OC(C)=O)[C@]12C)OOC1(CCC(C)CC1)OO5 (stereo in doubt; 3b)	34.2	49.3	39.2		42.4	74.9	26					
COC(=O)CC[C@@H](C)[C@H]1CC[C@H]2[C@@H]3CC[C@@H]4CC5(CC[C@]4(C)[C@H]3C[C@H](OC(C)=O)[C@]12C)OOC1(CCC(C)CC1)OO5 (stereo in doubt; 3c)							62.9	50.8	77.3	38.3	80.3	38
CC(=O)O[C@H]1C[C@H]2[C@@H](CC[C@@H]3CC4(CC[C@@]32C)OOC2(CCC(C)CC2)OO4)[C@@H]2CC[C@H]([C@H](C)CCC(=O)O)[C@@]12C (stereo in doubt; 4b)		84.8	11.6	17.1	19.9	47				12.1		
CCN(CC)CCCC(C)Nc1ccnc2cc(Cl)ccc12 (centres undefined) [CHLOROQUINE]		349		13.7								
